Consider 9 compounds from paper PMC10303271, “Synthesis and Receptor Binding Studies of α5 GABAAR Selective Novel Imidazodiazepines Targeted for Psychiatric and Cognitive Disorders” (Molecules, 2023).

Where two headings read alike, the source gives them in different places.

The target of one assay is T1, 5-HT6 (Homo sapiens, UniProt P50406).
T1 construct: purchased NIMH Psychoactive Drug Screening Program (PDSP)
The experiment in a line: PDSP primary binding 5-HT6. The note with it: 1.5 h; primary binding, 10,000 nM; last figure of the line = mean of the 4 before it; read-out: 5-HT6, PDSP raw data, mean. How it is done:
(§1) To determine if any off-target receptor-binding effects are present, all the novel ligands were sent to the National Institute of Mental Health (NIMH), Psychoactive Drug Screening Program (PDSP). The ligands were screened over a panel of 47 receptors, ion channels, and transporters to determine any other possible interactions with […]. The hERG-binding was also determined. […] No binding of the test compounds to calcium channels was observed. […] It is necessary to screen the compounds for hERG-binding during the early process of drug discovery. The unintentional binding of many drugs to hERG can cause blockade of hERG K+ channels in the heart, which can cause many side effects including cardiac arrhythmias and sudden death. […] All of the α5 imidazodiazepines were tested for hERG-binding.
(§2) The NIMH PDSP assay protocol book [https://kidbdev.med.unc.edu/databases/PDSP%20Protocols%20II%202013-03-28.pdf accessed on 23 April 2023]. describes the protocols for primary and secondary radio-ligand binding assays. These assays were carried out in a final volume of 125 µL per well in the appropriate binding buffer.
(§3) The binding of a ligand to a receptor, ion channel, or transporter was determined in the […] of 10 µM of the appropriate reference compound. […] Plates were incubated in the dark for 90 min at rt, and the reactions were stopped by vacuum filtration onto 0.3% polyethyleneimine (PEI) soaked 96-well filter mats using a 96-well Filtermateharvester. This was followed by three washes with cold PBS buffer. Radioactivity was then counted on a Microbeta counter. Nonlinear regression was used to analyze the data with N = 6 replicates.

A further assay deals with T2, H3 (Homo sapiens, UniProt Q9Y5N1).
T2 construct: purchased NIMH Psychoactive Drug Screening Program (PDSP)
Put plainly: PDSP primary binding H3. To be noted: primary binding, 10,000 nM; last figure of the line = mean of the 4 before it; read-out: H3, PDSP raw data, mean. Here is the method: as §1, §2, §3

Another assay deals with T3, HCA2 (Homo sapiens, UniProt Q8TDS4).
T3 construct: purchased NIMH Psychoactive Drug Screening Program (PDSP)
Put plainly: PDSP primary binding HCA2. To be noted: primary binding, 10,000 nM; last figure of the line = mean of the 4 before it; read-out: HCA2, PDSP raw data, mean. How it is done:
as §1, §2, §3

The next assay deals with T4, Beta3 (Homo sapiens, UniProt P13945).
T4 construct: purchased NIMH Psychoactive Drug Screening Program (PDSP)
Put plainly: PDSP primary binding Beta3. To be noted: 1.5 h; primary binding, 10,000 nM; last figure of the line = mean of the 4 before it; read-out: Beta3, PDSP raw data, mean. How it is done: as §1, §2, §3

The target of another assay is T5, 5-HT3 (Homo sapiens, UniProt P46098).
T5 construct: purchased NIMH Psychoactive Drug Screening Program (PDSP)
T5 sequence (P46098 24-478): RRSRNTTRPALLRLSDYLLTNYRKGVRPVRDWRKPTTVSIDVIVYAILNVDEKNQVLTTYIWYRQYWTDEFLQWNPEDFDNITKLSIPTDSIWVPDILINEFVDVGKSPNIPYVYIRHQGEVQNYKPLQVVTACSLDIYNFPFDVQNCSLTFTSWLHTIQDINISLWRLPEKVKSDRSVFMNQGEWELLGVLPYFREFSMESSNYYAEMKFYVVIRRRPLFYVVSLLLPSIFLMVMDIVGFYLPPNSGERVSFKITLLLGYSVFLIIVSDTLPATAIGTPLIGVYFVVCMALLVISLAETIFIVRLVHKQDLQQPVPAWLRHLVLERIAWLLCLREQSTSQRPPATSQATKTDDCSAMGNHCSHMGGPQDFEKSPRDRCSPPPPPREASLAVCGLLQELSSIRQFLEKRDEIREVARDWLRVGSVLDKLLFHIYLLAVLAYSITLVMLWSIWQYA
Put plainly: PDSP primary binding 5-HT3. To be noted: 1.5 h; primary binding, 10,000 nM; last figure of the line = mean of the 4 before it; read-out: 5-HT3, PDSP raw data, mean. Here is the method:
as §1, §2, §3

For the next assay, the target named is T6, MOR (Homo sapiens, UniProt P35372).
T6 construct: purchased NIMH Psychoactive Drug Screening Program (PDSP)
The experiment in a line: PDSP radioligand binding at MOR. To be noted: 1.5 h.
Text: Opioid receptors are a family of inhibitory G-coupled protein receptors where opioids act as the ligand. The kappa opioid receptors (KOR), µ and δ opioid receptors (MOR and DOR), and nociception opioid receptor (NOP) fall under the family of opioids receptors. It has been reported that oxadiazole imidazodiazepines can mediate analgesic and anti-inflammatory properties mediated also by the κ opioid receptor (KOR). The binding at KOR is usually silent. The affinities of the test compounds for KOR, DOR, and MOR were determined using radioligand binding assays at a screening concentration of 10,000 nM in collaboration with the National Institute of Mental Health’s Psychoactive Drug Screening Program (PDSP), as mentioned before. Concentration-dependent experiments were conducted to determine Ki values for the compounds that exceeded more than 50% radioligand displacement in primary binding assays.
as §2, §3

A further assay deals with AMPA. The experiment in a line: PDSP primary binding AMPA. To be noted: primary binding, 10,000 nM; last figure of the line = mean of the 4 before it. How it is done: as §1, §2, §3
In a further assay the target is T7, V1B (Homo sapiens, UniProt P47901).
T7 construct: purchased NIMH Psychoactive Drug Screening Program (PDSP)
T7 sequence (P47901 1-424): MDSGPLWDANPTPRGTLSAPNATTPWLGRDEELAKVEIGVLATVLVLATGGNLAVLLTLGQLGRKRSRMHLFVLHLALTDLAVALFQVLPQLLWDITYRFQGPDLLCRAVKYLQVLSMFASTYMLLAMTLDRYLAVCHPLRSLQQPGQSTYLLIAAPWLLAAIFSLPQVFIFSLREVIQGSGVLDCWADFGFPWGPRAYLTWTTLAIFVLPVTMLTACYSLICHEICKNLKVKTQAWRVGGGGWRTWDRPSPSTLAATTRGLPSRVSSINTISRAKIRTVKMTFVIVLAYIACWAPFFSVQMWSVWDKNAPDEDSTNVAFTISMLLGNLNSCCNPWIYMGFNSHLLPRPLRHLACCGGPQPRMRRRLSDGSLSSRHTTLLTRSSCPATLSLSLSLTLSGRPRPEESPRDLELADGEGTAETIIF
Put plainly: PDSP primary binding V1B. The note with it: primary binding, 10,000 nM; last figure of the line = mean of the 4 before it; read-out: V1B, PDSP raw data, mean. How it is done: as §1, §2, §3

The mark [1] stands for this setting: at 10,000 nM, N = 5, [3H]-DAMGO 1.20 nM, read-out: Primary Binding %MOR.
[2] abbreviates: primary binding, 10,000 nM, last figure of the line = mean of the 4 before it, read-out: MOR, PDSP raw data, mean.

T2 sequence (Q9Y5N1 whole entry): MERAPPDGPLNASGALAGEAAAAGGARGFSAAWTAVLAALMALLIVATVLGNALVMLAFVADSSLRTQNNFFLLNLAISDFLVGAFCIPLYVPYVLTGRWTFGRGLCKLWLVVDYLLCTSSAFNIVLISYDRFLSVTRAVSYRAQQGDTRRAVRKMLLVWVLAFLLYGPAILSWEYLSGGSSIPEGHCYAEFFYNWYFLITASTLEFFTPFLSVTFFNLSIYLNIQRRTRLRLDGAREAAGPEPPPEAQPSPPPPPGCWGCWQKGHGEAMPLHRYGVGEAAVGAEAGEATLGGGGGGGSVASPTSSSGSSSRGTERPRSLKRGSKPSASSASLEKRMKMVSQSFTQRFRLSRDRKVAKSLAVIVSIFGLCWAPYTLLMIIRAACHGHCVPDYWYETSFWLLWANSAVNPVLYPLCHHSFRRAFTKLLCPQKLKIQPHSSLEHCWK
T3 sequence (Q8TDS4 whole entry): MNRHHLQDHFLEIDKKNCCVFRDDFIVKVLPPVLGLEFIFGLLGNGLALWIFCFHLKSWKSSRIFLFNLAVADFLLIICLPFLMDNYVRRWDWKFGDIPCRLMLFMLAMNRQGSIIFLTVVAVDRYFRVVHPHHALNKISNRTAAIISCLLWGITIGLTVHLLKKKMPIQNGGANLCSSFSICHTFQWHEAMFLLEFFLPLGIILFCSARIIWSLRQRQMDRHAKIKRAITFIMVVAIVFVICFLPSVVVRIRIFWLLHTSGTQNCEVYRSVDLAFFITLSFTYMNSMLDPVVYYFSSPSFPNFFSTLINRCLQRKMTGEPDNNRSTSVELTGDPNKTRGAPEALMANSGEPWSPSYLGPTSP
T6 sequence (P35372 whole entry): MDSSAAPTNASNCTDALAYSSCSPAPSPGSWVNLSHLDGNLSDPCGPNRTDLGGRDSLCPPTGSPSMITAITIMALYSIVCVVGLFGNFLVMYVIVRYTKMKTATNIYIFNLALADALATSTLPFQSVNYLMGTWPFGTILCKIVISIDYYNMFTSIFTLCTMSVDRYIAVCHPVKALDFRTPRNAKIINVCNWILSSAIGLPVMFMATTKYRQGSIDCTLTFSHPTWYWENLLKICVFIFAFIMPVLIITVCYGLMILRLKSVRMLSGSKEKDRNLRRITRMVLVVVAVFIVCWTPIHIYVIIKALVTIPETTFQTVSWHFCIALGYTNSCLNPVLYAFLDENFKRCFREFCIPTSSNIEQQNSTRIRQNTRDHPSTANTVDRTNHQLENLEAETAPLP
T4 sequence (P13945 whole entry): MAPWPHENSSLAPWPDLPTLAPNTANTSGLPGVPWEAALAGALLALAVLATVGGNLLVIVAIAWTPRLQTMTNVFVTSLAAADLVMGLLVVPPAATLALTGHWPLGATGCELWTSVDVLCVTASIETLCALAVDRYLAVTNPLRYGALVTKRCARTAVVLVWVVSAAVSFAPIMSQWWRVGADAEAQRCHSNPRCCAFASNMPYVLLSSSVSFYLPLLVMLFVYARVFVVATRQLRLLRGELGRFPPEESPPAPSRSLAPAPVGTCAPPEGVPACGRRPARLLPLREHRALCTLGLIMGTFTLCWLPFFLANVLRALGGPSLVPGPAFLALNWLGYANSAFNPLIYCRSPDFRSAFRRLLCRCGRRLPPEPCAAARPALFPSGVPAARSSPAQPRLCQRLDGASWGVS
T1 sequence (P50406 whole entry): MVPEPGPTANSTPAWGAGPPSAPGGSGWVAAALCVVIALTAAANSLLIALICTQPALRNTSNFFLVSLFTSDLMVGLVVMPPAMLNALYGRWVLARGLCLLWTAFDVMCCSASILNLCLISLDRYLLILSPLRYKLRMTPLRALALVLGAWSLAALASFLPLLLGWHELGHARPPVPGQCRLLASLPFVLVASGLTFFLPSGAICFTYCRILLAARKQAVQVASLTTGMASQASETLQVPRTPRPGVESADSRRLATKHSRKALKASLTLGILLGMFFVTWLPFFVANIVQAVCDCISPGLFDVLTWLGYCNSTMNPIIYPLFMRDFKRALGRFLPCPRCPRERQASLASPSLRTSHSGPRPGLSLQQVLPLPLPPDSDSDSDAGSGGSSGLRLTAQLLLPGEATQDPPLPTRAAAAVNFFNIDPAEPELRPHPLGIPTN

On to `CCc1noc(-c2ncn3c2[C@@H](C)N=C(c2ccccc2F)c2cc(Cl)ccc2-3)n1` [Compound 36, (R)-5-(8-Chloro-6-(2′-fluorophenyl)-4-methyl-4H-benzo[f]imidazo[1,5-a][1,4]diazepin-3-yl)-3-ethyl-1,2,4-oxadiazole], for which the inhibition at 10 µM is 10.8% at 5-HT6; -0.81% at H3; -29.3% at HCA2; 1.76% at Beta3; -2% on 5-HT3; 19.2 ± 5.47% on MOR (setting [1]). Also, the inhibition at 10 µM came out at 19.2% at MOR (setting [2]) and 22.9% on V1B. Also, in the assay with AMPA, the “AMPA, PDSP raw data, mean” value is reported as -24.14%.
On to `C[C@H]1N=C(c2ccccc2F)c2cc(-c3ccccc3)ccc2-n2cnc(C(=O)N(C)C)c21` [Compound 5, (R)-6-(2′-Fluorophenyl)-N,N,4-trimethyl-8-phenyl-4H-benzo[f]imidazo[1,5-a][1,4]diazepine-3-carboxamide], for which the inhibition at 10 µM at 5-HT6 was 24.6%; at H3 it was 5.94%; at HCA2, -9.82%; on Beta3 it was -19.4%; at 5-HT3, -0.89%; at MOR (setting [1]), -11.2 ± 5.72%. Besides, the inhibition at 10 µM at MOR (setting [2]) is -11.2%; on V1B, 1.4%. In the assay on AMPA, the “AMPA, PDSP raw data, mean” value stood at 7.77%.
As for `C[C@H]1N=C(c2ccccc2F)c2cc(Cl)ccc2-n2cnc(-c3nc(C4CC4)no3)c21` [Compound 38, (R)-5-(8-Chloro-6-(2′-fluorophenyl)-4-methyl-4H-benzo[f]imidazo[1,5-a][1,4]diazepin-3-yl)-3-cyclopropyl-1,2,4-oxadiazole], the inhibition at 10 µM on 5-HT6 was -6.37%; at H3, 3.21%; on HCA2 it was -1.1%; on Beta3, 24.2%; at 5-HT3, 13.5%; on MOR (setting [1]), 30.2 ± 6.46%. In addition, the figures for the inhibition at 10 µM on MOR (setting [2]) and at V1B were 30.2% and -7.2%, respectively. The “AMPA, PDSP raw data, mean” value with AMPA is given as 21.42%.
As for `C#Cc1ccc2c(c1)C(c1ccccc1F)=N[C@H](C)c1c(C(=S)N(C)C)ncn1-2` [Compound 33, (R)-8-Ethynyl-6-(2′-fluorophenyl)-N,N,4-trimethyl-4H-benzo[f]imidazo[1,5-a][1,4]diazepine-3-carbothioamide], the inhibition at 10 µM was 24.6% at 5-HT6; 5.94% on H3; -9.82% on HCA2; -19.4% on Beta3; -0.89% on 5-HT3; -2.4 ± 5.72% at MOR (setting [1]). The figures for the inhibition at 10 µM on MOR (setting [2]) and at V1B were -11.2% and 1.4%, respectively. In the assay with AMPA, the “AMPA, PDSP raw data, mean” value turned out to be 7.77%.
For `C#Cc1ccc2c(c1)C(c1ccccc1Cl)=N[C@H](C)c1c(C(=O)NC)ncn1-2` [Compound 21, (R)-6-(2′-Chlorophenyl)-8-ethynyl-N,4-dimethyl-4H-benzo[f]imidazo[1,5-a][1,4]diazepine-3-carboxamide], the inhibition at 10 µM on 5-HT6 was -8.24%; at H3 it was 4.81%; on HCA2 it was 35.7%; on Beta3, 10.7%; on 5-HT3, 2.85%; on MOR (setting [1]), -3.57 ± 7.68%. Also, the inhibition at 10 µM on MOR (setting [2]) was -3.57%; on V1B it was 45.8%. In addition, in the assay with AMPA, the “AMPA, PDSP raw data, mean” value is listed as -31.95%.
`CCc1noc(-c2ncn3c2[C@@H](C)N=C(c2ccccc2F)c2cc(C4CC4)ccc2-3)n1` [Compound 46, (R)-5-(8-Cyclopropyl-6-(2′-fluorophenyl)-4-methyl-4H-benzo[f]imidazo[1,5-a][1,4]diazepin-3-yl)-3-ethyl-1,2,4-oxadiazole]: the inhibition at 10 µM at 5-HT6 was 71.5%; at H3, -6.39%; on HCA2, -17.2%; at Beta3 it was 31.1%; at 5-HT3, 29.8%; at MOR (setting [2]) it was 25.1%. For the same compound, the inhibition at 10 µM on V1B amounted to 2.67%. The “AMPA, PDSP raw data, mean” value in the assay on AMPA is on record as 0.81%.
In the case of `CCc1noc(-c2ncn3c2CN=C(c2ccccc2F)c2cc(C4CC4)ccc2-3)n1` [Compound 44, 5-(8-Cyclopropyl-6-(2′-fluorophenyl)-4H-benzo[f]imidazo[1,5-a][1,4]diazepin-3-yl)-3-ethyl-1,2,4-oxadiazole], the inhibition at 10 µM was 27.6% at 5-HT6; 7.26% on H3; -11.9% on HCA2; -4.01% at Beta3; 12.8% at 5-HT3; 26.4 ± 6.01% at MOR (setting [1]). Further, the results for the inhibition at 10 µM at MOR (setting [2]) and on V1B were 26.4% and 35.7%, respectively. Moreover, the “AMPA, PDSP raw data, mean” value in the assay on AMPA was -9.33%.
Regarding `C#Cc1ccc2c(c1)C(c1ccccc1Cl)=N[C@H](C)c1c(C(=O)N(C)CC)ncn1-2` [Compound 29], the inhibition at 10 µM at 5-HT6 was 14.9%; at H3, -29.5%; at HCA2, -26.3%; on Beta3 it was 9.72%; on 5-HT3, -4.07%; at MOR (setting [1]), 7.31 ± 9.54%. For the same compound, the inhibition at 10 µM stood at 7.31% at MOR (setting [2]) and 11% at V1B. Moreover, in the assay with AMPA, the “AMPA, PDSP raw data, mean” value is reported as -3.32%.
As for `CCc1noc(-c2ncn3c2[C@@H](C)N=C(c2ccccc2F)c2cc(-c4ccccc4)ccc2-3)n1` [Compound 35, (R)-3-Ethyl-5-(6-(2′-fluorophenyl)-4-methyl-8-phenyl-4H-benzo[f]imidazo[1,5-a][1,4]diazepin-3-yl)-1,2,4-oxadiazole], the inhibition at 10 µM on 5-HT6 is 10.3%; at H3 it was 4.89%; on HCA2, -18.7%; on Beta3 it was 27.9%; at 5-HT3, -9.33%; on MOR (setting [1]) it was 14.8 ± 6.32%. Further, the inhibition at 10 µM at MOR (setting [2]) was 14.8%; on V1B, 21%. Besides, the “AMPA, PDSP raw data, mean” value in the assay on AMPA is recorded as -5.68%.
